Measured values reported in the supplement of paper PMC11061612.

Key:
Assay in all cases: combination Emax (second highest fraction inhibited in the dose matrix, 72 h); higher = more inhibition; extreme values may be limits of the assay
[1] = test system: BxPC-3 (Pancreatic Carcinoma)
How it was run: (§1)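 After 24 hours at 37°C and 5% CO2 in 1536-well plates, cells in DMEM/F12 or RPMI plus 10% FBS received two-drug dose matrices for 72 hours. Viability came from CellTiter-Glo 2.0 luminescence and was scaled as inhibition, anchored at 0 by vehicle wells and at 1 by blank wells. Combination Emax is taken as the second-highest inhibition in the matrix, and Bliss excess as the observed combination effect less EA + EB − EA·EB, with EA and EB the single-agent effects.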

[2] = test system: C-33-A (Cervical Carcinoma)
How it was run: as §1

[3] = test system: DBTRG-05MG (Glioblastoma)
How it was run: as §1

[4] = test system: HT-1080 (Other Solid Carcinomas)
How it was run: as §1

[5] = test system: NAMALWA (Burkitt's Lymphoma)
How it was run: as §1

NB1 (Neuroblastoma) = test system: NB1 (Neuroblastoma)
How it was run: as §1

[6] = test system: NCI-H1341 (Small Cell Lung Carcinoma)
How it was run: as §1

NCI-H2373 (Mesothelioma) = test system: NCI-H2373 (Mesothelioma)
How it was run: as §1

[7] = test system: SAT (Head and Neck Carcinoma)
How it was run: as §1

[8] = test system: SKG-IIIa (Cervical Carcinoma)
How it was run: as §1

[9] = test system: SNU-423 (Hepatocellular Carcinoma)
How it was run: as §1

[10] = test system: T84 (Colorectal Carcinoma)
How it was run: as §1

WM35 (Melanoma) = test system: WM35 (Melanoma)
How it was run: as §1

[11] = test system: ZR-75-30 (Breast Carcinoma)
How it was run: as §1

Row | Structure (SMILES) | combination Emax [1] | combination Emax [2] | combination Emax [3] | combination Emax [4] | combination Emax [5] | combination Emax (NB1 (Neuroblastoma)) | combination Emax [6] | combination Emax (NCI-H2373 (Mesothelioma)) | combination Emax [7] | combination Emax [8] | combination Emax [9] | combination Emax [10] | combination Emax (WM35 (Melanoma)) | combination Emax [11]
1 | Cc1cc2ncnn2cc1Nc1ncc2c(n1)n(C1CCOCC1)c(=O)n2C [AZD7648] + C=CCn1c(=O)c2cnc(Nc3ccc(N4CCN(C)CC4)cc3)nc2n1-c1cccc(C(C)(C)O)n1 [AZD1775] (first compound max 10 µM, partner max 1 µM) | 0.428 | 0.93 | 0.343 | 0.405 | 0.96 | 0.847 | 0.69 | 0.484 | 0.623 | 0.43 | 0.497 | 0.45 | 0.294 | 0.137
2 | Cc1cc2ncnn2cc1Nc1ncc2c(n1)n(C1CCOCC1)c(=O)n2C [AZD7648] + CCN(CCO)CCCOc1ccc2c(Nc3cc(CC(=O)Nc4cccc(F)c4)[nH]n3)ncnc2c1 [AZD2811] (first compound max 10 µM, 7x7, partner max 1 µM) | 0.25 | 0.368 | 0.228 | 0.261 | 0.432 | 0.629 | 0.371 | 0.534 | 0.376 | 0.297 | 0.341 | 0.287 | 0.155 | 0.141
3 | Cc1cc2ncnn2cc1Nc1ncc2c(n1)n(C1CCOCC1)c(=O)n2C [AZD7648] + CN(C)CCCOc1ccc(-c2ccc3ncc4c(c3c2)n(C2CCOCC2)c(=O)n4C)cn1 [AZD0156] (first compound max 10 µM, 7x7, partner max 1 µM) | 0.176 | 0.372 | 0.192 | 0.151 | 0.266 | 0.238 | 0.34 | 0.566 | 0.378 | 0.241 | 0.341 | 0.214 | 0.129 | 0.194
4 | Cc1cc2ncnn2cc1Nc1ncc2c(n1)n(C1CCOCC1)c(=O)n2C [AZD7648] + C[C@@H]1COCCN1C2=NC(=NC(=C2)C3(CC3)[S@](=N)(=O)C)C4=C5C=CNC5=NC=C4 [AZD6738] (first compound max 10 µM, 7x7, partner max 10 µM) | 0.36 | 0.913 | 0.306 | 0.426 | 0.936 | 0.775 | 0.801 | 0.674 | 0.494 | 0.318 | 0.524 | 0.706 | 0.497 | 0.17
5 | Cc1cc2ncnn2cc1Nc1ncc2c(n1)n(C1CCOCC1)c(=O)n2C [AZD7648] + O=C(c1cc(Cc2n[nH]c(=O)c3ccccc23)ccc1F)N1CCN(C(=O)C2CC2)CC1 [Olaparib] (first compound max 10 µM, 7x7, partner max 10 µM) | 0.0851 | 0.305 | 0.0842 | 0.147 | 0.578 | 0.191 | 0.433 | 0.572 | 0.164 | 0.0374 | 0.275 | 0 | 0.119 | 0.12
6 | COc1cccc2c1C(=O)c1c(O)c3c(c(O)c1C2=O)C[C@@](O)(C(=O)CO)C[C@@H]3O[C@H]1C[C@H](N)[C@H](O)[C@H](C)O1 [Doxorubicin] + Cc1cc2ncnn2cc1Nc1ncc2c(n1)n(C1CCOCC1)c(=O)n2C [AZD7648] (first compound max 1 µM, 7x7, partner max 10 µM) | 0.455 | 0.904 | 0.588 | 0.67 | 0.976 | 0.89 | 0.905 | 0.95 | 0.616 | 0.512 | 0.713 | 0.163 | 0.564 | 0.3
7 | COc1cccc(OCCCN)c1-c1cc(Nc2cnc(C#N)cn2)n[nH]1 [Prexasertib] + C=CCn1c(=O)c2cnc(Nc3ccc(N4CCN(C)CC4)cc3)nc2n1-c1cccc(C(C)(C)O)n1 [AZD1775] (first compound max 1 µM, partner max 1 µM) | 0.76 | 0.985 | 0.331 | 0.576 | 0.989 | 0.906 | 0.982 | 0.497 | 0.666 | 0.527 | 0.878 | 0.861 | 0.819 | 0.137
8 | COc1cccc(OCCCN)c1-c1cc(Nc2cnc(C#N)cn2)n[nH]1 [Prexasertib] + CCc1c2c(nc3ccc(O)cc13)-c1cc3c(c(=O)n1C2)COC(=O)[C@]3(O)CC [SN-38] (first compound max 1 µM, 7x7, partner max 0.3 µM) | 0.796 | 0.992 | 0.624 | 0.651 | 0.986 | 0.912 | 0.987 | 0.642 | 0.618 | 0.595 | 0.779 | 0.866 | 0.726 | 0.14
9 | COc1cccc(OCCCN)c1-c1cc(Nc2cnc(C#N)cn2)n[nH]1 [Prexasertib] + CN(C)CCCOc1ccc(-c2ccc3ncc4c(c3c2)n(C2CCOCC2)c(=O)n4C)cn1 [AZD0156] (first compound max 1 µM, 7x7, partner max 1 µM) | 0.66 | 0.842 | 0.409 | 0.563 | 0.991 | 0.911 | 0.869 | 0.423 | 0.579 | 0.389 | 0.713 | 0.815 | 0.845 | 0.117
10 | COc1cccc(OCCCN)c1-c1cc(Nc2cnc(C#N)cn2)n[nH]1 [Prexasertib] + C[C@@H]1COCCN1C2=NC(=NC(=C2)C3(CC3)[S@](=N)(=O)C)C4=C5C=CNC5=NC=C4 [AZD6738] (first compound max 1 µM, 7x7, partner max 10 µM) | 0.633 | 0.913 | 0.281 | 0.534 | 0.986 | 0.773 | 0.912 | 0.644 | 0.552 | 0.453 | 0.695 | 0.815 | 0.833 | 0.166
11 | COc1cccc(OCCCN)c1-c1cc(Nc2cnc(C#N)cn2)n[nH]1 [Prexasertib] + Cc1cc2ncnn2cc1Nc1ncc2c(n1)n(C1CCOCC1)c(=O)n2C [AZD7648] (first compound max 1 µM, 7x7, partner max 10 µM) | 0.68 | 0.882 | 0.315 | 0.557 | 0.994 | 0.78 | 0.919 | 0.531 | 0.573 | 0.389 | 0.735 | 0.785 | 0.772 | 0.17
12 | COc1cccc(OCCCN)c1-c1cc(Nc2cnc(C#N)cn2)n[nH]1 [Prexasertib] + O=C(c1cc(Cc2n[nH]c(=O)c3ccccc23)ccc1F)N1CCN(C(=O)C2CC2)CC1 [Olaparib] (first compound max 1 µM, 7x7, partner max 10 µM) | 0.682 | 0.819 | 0.326 | 0.542 | 0.983 | 0.561 | 0.884 | 0.378 | 0.595 | 0.373 | 0.77 | 0.826 | 0.79 | 0.202
13 | COc1cc2c(cc1OCCCCCOc1cc3c(cc1OC)C(=O)N1C=C(C)C[C@H]1C=N3)N=C[C@@H]1CC(C)=CN1C2=O [SG3199] + O=C(c1cc(Cc2n[nH]c(=O)c3ccccc23)ccc1F)N1CCN(C(=O)C2CC2)CC1 [Olaparib] (first compound max 0.001 µM, 7x7, partner max 10 µM) | 0.101 | 0.189 | 0.114 | 0.12 | 0.575 | 0.187 | 0.193 | 0.242 | 0.17 | 0.144 | 0.146 | 0.0664 | 0.144 | 0.308
14 | CCc1c2c(nc3ccc(O)cc13)-c1cc3c(c(=O)n1C2)COC(=O)[C@]3(O)CC [SN-38] + CN(C)CCCOc1ccc(-c2ccc3ncc4c(c3c2)n(C2CCOCC2)c(=O)n4C)cn1 [AZD0156] (first compound max 0.3 µM, 7x7, partner max 1 µM) | 0.523 | 0.802 | 0.412 | 0.374 | 0.989 | 0.83 | 0.955 | 0.726 | 0.344 | 0.42 | 0.455 | 0.644 | 0.509 | 0.0683
15 | CC(=O)Nc1cccc(-n2c(=O)n(C3CC3)c(=O)c3c(Nc4ccc(I)cc4F)n(C)c(=O)c(C)c32)c1 [Trametinib] + Cc1nc(-c2cn3c(n2)-c2ccc(-c4cnn(C(C)(C)C(N)=O)c4)cc2OCC3)n(C(C)C)n1 [Taselisib] (first compound max 1 µM, 7x7, partner max 10 µM) | 1 | 0.669 | 0.69 | 0.628 | 0.589 | 0.995 | 0.927 | 0.766 | 0.941 | 0.527 | 0.827 | 0.96 | 0.97 | 0.667
16 | CC1(C)CCC(CN2CCN(c3ccc(C(=O)NS(=O)(=O)c4ccc(NCC5CCOCC5)c([N+](=O)[O-])c4)c(Oc4cnc5[nH]ccc5c4)c3)CC2)=C(c2ccc(Cl)cc2)C1 [Venetoclax] + C1CN(CCC1(C(=O)N[C@@H](CCO)C2=CC=C(C=C2)Cl)N)C3=NC=NC4=C3C=CN4 [Capivasertib] (first compound max 1 µM, 7x7, partner max 3 µM) | 0.297 | 0.547 | 0.209 | 0.127 | 0.534 | 0.755 | 0.551 | 0.422 | 0.377 | 0.224 | 0.393 | 0.168 | 0.178 | 0.312
17 | CC1(C)CCC(CN2CCN(c3ccc(C(=O)NS(=O)(=O)c4ccc(NCC5CCOCC5)c([N+](=O)[O-])c4)c(Oc4cnc5[nH]ccc5c4)c3)CC2)=C(c2ccc(Cl)cc2)C1 [Venetoclax] + C=CCn1c(=O)c2cnc(Nc3ccc(N4CCN(C)CC4)cc3)nc2n1-c1cccc(C(C)(C)O)n1 [AZD1775] (first compound max 1 µM, partner max 1 µM) | 0.727 | 0.961 | 0.241 | 0.349 | 0.975 | 0.889 | 0.808 | 0.364 | 0.545 | 0.271 | 0.732 | 0.577 | 0.165 | 0.159
